This test deals with SK-MEL-5 TRPM1-promoter luciferase reporter, 24 h. The test is described as follows: reducers of TRPM1 reporter luminescence, concentration series – cell-based, SK-MEL-5, cherry-picked, set 4, MITF inhibitor project, dose response (AID 493102).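 Note: actives lower the luciferase signal so the potency reflects inhibition of reporter expression.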

The term AC50 denotes the concentration at which the activity in the assay is half-maximal.

Structures are written as SMILES.

For the molecule `Cc1ccc(NC(=O)c2ncn(CCCN[C@H](C)c3cccc4ccccc34)n2)cc1C`, the concentration at half-maximal activity (AC50) was 22.7 µM.

As for `Cc1ccc(C(=O)Nc2cnc3ccccc3c2)cc1`, the AC50 is 1.15 µM.

As to `COc1cc2nc(SCC(=O)NCc3ccco3)n(Cc3ccc(Cl)cc3)c(=O)c2cc1OC`, the AC50 was 13.2 µM.

`O=C1c2ccccc2C(=O)c2c1ncn2-c1ccccc1`: the half-maximal activity concentration (AC50) was 7.33 µM.

As to `Cc1cccc(NC2=C(NC(=O)c3ccccc3)C(=O)c3ccccc3C2=O)c1`, the AC50 is 9.99 µM.

`N#CCc1ccc(NC(=O)/C=C/c2ccc([N+](=O)[O-])o2)cc1`: the AC50 is 4.97 µM.

Turning to `COC(=O)C1=C(C)N(Cc2ccccc2)C(=NCc2ccccc2)N[C@H]1c1ccccc1`, the concentration at half-maximal activity (AC50) is 18 µM.

Consider `Cc1cc(C=C2C(=O)c3ccccc3C2=O)c(C)n1-c1ccccc1`, for which the AC50 is 3.78 µM.

Consider `CCC(=O)N1CCN(c2ccc(Cl)cc2NC(=O)c2ccc([N+](=O)[O-])o2)CC1`, for which the AC50 is 12.4 µM.

Take `O=C(/C=C/c1cccc([N+](=O)[O-])c1)n1cnc2ccccc21`: the AC50 is 4.39 µM.

For the molecule `O=C(C#Cc1ccccc1)c1cccc([N+](=O)[O-])c1`, the AC50 was 3.62 µM.

On to `CC1CCCC(NC(=O)NC(=O)CCl)C1C` (stereo unspecified), for which the concentration at half-maximal activity (AC50) was 12.4 µM.

`CC(C)[C@H](NC(=O)OC(C)(C)C)c1nnc(S(=O)(=O)Cc2c(F)cccc2Cl)o1`: the concentration at half-maximal activity (AC50) is 11.6 µM.

On to `CC1(C)Cc2c(sc(NC(=O)c3ccc4ncsc4c3)c2C(N)=O)C(C)(C)N1`, for which the AC50 is 10.1 µM.

On to `Cc1nn(-c2ccccc2Cl)c(Cl)c1/C=N/Nc1cccc(C(=O)O)c1`, for which the concentration at half-maximal activity (AC50) was 5.5 µM.

For `Cc1cc(N2CCOCC2)ccc1/C=C\[N+](=O)[O-]`, the AC50 was 22.5 µM.

Regarding `C#CCCc1ccccc1/C=[N+](/C)[O-]`, the half-maximal activity concentration (AC50) was 9.4 µM.

On to `COc1ccc(C(CCNC(C)c2ccccc2)c2ccc(F)cc2)cc1` (stereo unspecified), for which the AC50 was 16.6 µM.

With `Cc1cc(C)c2c(N)c(C(=O)Nc3ncc(C)s3)sc2n1`, the AC50 was 1.09 µM.

As for `Cc1ccc(Cn2c(=N)n(CC(=O)c3ccc([N+](=O)[O-])cc3)c3ccccc32)cc1`, the AC50 was 6.42 µM.

In the case of `NNC(=O)c1cc2ccccc2cc1O`, the AC50 was 24 µM.

On to `Cc1cccc(NC(=O)c2ccc([N+](=O)[O-])o2)c1C`, for which the AC50 is 14.8 µM.

Consider `CCc1cc[n+](C2=C([O-])c3ccccc3C(=O)/C2=N\S(=O)(=O)c2cccs2)cc1`, for which the AC50 is 1.15 µM.

Turning to `COc1cccc(/C=C2/Sc3ccc(C(=O)NCCN4CCCC4)cc3NC2=O)c1`, the half-maximal activity concentration (AC50) was 17.9 µM.

As for `Cn1cc(C(=O)CCl)c2ccccc21`, the AC50 is 8.48 µM.

Regarding `CCN(CC)S(=O)(=O)c1ccc(NC(=O)c2cccnc2Cl)c(NC(=O)c2cccnc2Cl)c1`, the concentration at half-maximal activity (AC50) is 7.03 µM.

In the case of `Cc1cc(NC(=O)c2cncc(Br)c2)ccc1NC(=O)c1cc2ccccc2o1`, the AC50 is 10.4 µM.

Turning to `Cn1cccc1-c1cc(C(=O)N/N=C/c2cc(Br)ccc2O)[nH]n1`, the half-maximal activity concentration (AC50) was 5.25 µM.

As for `CC(C)=NOc1cc(NC(=O)CCl)cc([N+](=O)[O-])c1`, the AC50 was 6.18 µM.

For `CN(Cc1ccccc1)C1=CC(=[N+]2CCCC2)CC(C)(C)C1`, the AC50 is 1.55 µM.

Consider `O=C1C=C(N(CCO)Cc2ccccc2)c2ccccc2C1=O`, for which the AC50 is 4.78 µM.

Turning to `O=C(Nc1ccccc1)NN(C(=O)CCl)c1ccccc1`, the AC50 was 8.5 µM.

As to `O=[N+]([O-])c1ccc(/C=N/n2cnc3ccccc32)s1`, the AC50 was 6.25 µM.

For the molecule `O=C(Nc1cccc(S(=O)(=O)N2CCCCC2)c1)c1ccc([N+](=O)[O-])o1`, the AC50 was 11.9 µM.

As for `O=C(N/N=C/c1ccc([N+](=O)[O-])o1)c1ccccc1-n1cccc1`, the half-maximal activity concentration (AC50) is 17.1 µM.

As for `C(#Cc1ccccc1)C[N+]1(CC#Cc2cccc3ccccc23)CCCC1`, the concentration at half-maximal activity (AC50) was 6.21 µM.

Turning to `Cc1ccc(C(=O)N/C(=C\c2ccc(-c3ccccc3[N+](=O)[O-])o2)C(=O)NCCCN(C)C)cc1`, the AC50 is 3.28 µM.

`CC(C)CC(=O)NC(c1cccs1)c1ccc2cccnc2c1O` (stereo unspecified): the AC50 was 3.71 µM.

On to `O=C(N/N=C/c1ccc(O)c2ncccc12)c1cccc(Br)c1`, for which the half-maximal activity concentration (AC50) was 7.28 µM.

Consider `COc1ccc(-n2ncc3c(N4CCCCC4)ncnc32)cc1`, for which the AC50 is 1.48 µM.

On to `NCCN1C(=O)S/C(=C\c2ccc3c(c2)OCO3)C1=O`, for which the AC50 is 22.3 µM.

In the case of `Oc1cc(NCCN2CCOCC2)cc2cccnc12`, the AC50 was 25.9 µM.

With `CC(OC(=O)c1ccc([N+](=O)[O-])s1)C(=O)NC1CCCCC1C` (stereo unspecified), the AC50 was 12 µM.

Turning to `O=c1c(Cl)c(Cl)cnn1-c1ccccc1`, the AC50 is 9.54 µM.

Consider `CC(C)C(=O)N1CCN(c2ccc(NC(=O)c3ccc([N+](=O)[O-])o3)cc2)CC1`, for which the AC50 was 7.98 µM.

For `C=CCC(Nc1ccccc1)C12C=CC(O1)C(C(=O)OC)=C2C(=O)OC` (stereo unspecified), the half-maximal activity concentration (AC50) was 11.7 µM.

In the case of `CC(C)c1ccc(N2C(=O)NC(=O)/C(=C/C=C/c3ccco3)C2=O)cc1`, the AC50 is 5.89 µM.

`Cc1[nH]c2ccccc2c1C(=O)CCl`: the half-maximal activity concentration (AC50) was 6.78 µM.

On to `O=C(O)c1cc2ccccc2c(N=Nc2cccnc2)c1O`, for which the concentration at half-maximal activity (AC50) was 11.4 µM.

Take `CS(=O)(=O)N1CCN(c2ccc(NC(=O)c3ccc([N+](=O)[O-])o3)cc2)CC1`: the concentration at half-maximal activity (AC50) was 4.92 µM.

`CCOC(=O)N1C(=O)[C@](CC)(c2ccccc2)N1C(=O)OCC`: the AC50 is 10 µM.

On to `N#Cc1c(NC(=O)CSc2ncn[nH]2)sc2c1CCCCC2`, for which the half-maximal activity concentration (AC50) is 0.371 µM.

Consider `Cc1ccc(-c2c[n+](Cc3ccc(Cl)c(Cl)c3)c3n2CCC3)cc1`, for which the AC50 was 3.73 µM.

In the case of `CCN(CC)S(=O)(=O)c1ccc(N2CCCC2)c(NC(=O)c2ccc([N+](=O)[O-])o2)c1`, the AC50 is 3.18 µM.

For `O=C(Nc1nc(-c2ccccn2)cs1)c1ccc([N+](=O)[O-])o1`, the AC50 is 10.8 µM.

`CC(C)N1C/C(=C/c2cccnc2)C(=O)/C(=C/c2cccnc2)C1`: the half-maximal activity concentration (AC50) is 14.2 µM.

For `Cn1nnnc1Sc1ncnc2scc(-c3ccc(C#N)cc3)c12`, the concentration at half-maximal activity (AC50) was 4.98 µM.

In the case of `Cc1c(C#N)c(NC(=O)CCl)n(Cc2ccccc2)c1C`, the half-maximal activity concentration (AC50) was 11.2 µM.

As to `COc1cc2c(cc1OC)C(SC)=NC1(CCCC1)C2`, the AC50 is 9.44 µM.

Take `NC(=O)c1cc([N+](=O)[O-])ccc1NCc1ccc(N)cc1`: the AC50 was 1.41 µM.

Turning to `C/C(=C\c1ccc(N(C)C)cc1)[N+](=O)[O-]`, the AC50 was 13.1 µM.

As to `O=C(CCl)Nc1ccc(Sc2ccc(NC(=O)CCl)cc2)cc1`, the AC50 is 5.98 µM.

For the molecule `C/C(=N\NC(=O)C(C)Oc1ccc([N+](=O)[O-])cc1)c1ccccn1` (stereo unspecified), the concentration at half-maximal activity (AC50) is 2.39 µM.

Regarding `COc1cccc(-c2nnc3n2N=C(C(C)(C)C)CS3)c1`, the concentration at half-maximal activity (AC50) is 4.82 µM.

Take `O=C1NC(=O)N(Cc2ccccc2Cl)C(=O)/C1=C/c1cccs1`: the AC50 is 29.7 µM.

For `O=C(O)c1ccc(C(=O)Nc2ccc(F)cc2)cc1`, the concentration at half-maximal activity (AC50) was 19.8 µM.

For `Cc1ccccc1OCC(=O)N/N=C/c1ccc([N+](=O)[O-])o1`, the AC50 was 8.22 µM.

For the molecule `Cc1ccc(NC(=O)CCl)cc1S(=O)(=O)N1CCCCCC1`, the AC50 was 7.55 µM.

For `CC1CCN(CC(CS(=O)(=O)c2ccc([N+](=O)[O-])cc2)N2CCC(C)CC2)CC1` (stereo unspecified), the AC50 is 6.62 µM.

As to `CC(=O)OCCCNc1cc(Sc2ccc(Cl)cc2)c2nonc2c1[N+](=O)[O-]`, the AC50 was 10.9 µM.

As for `COc1ccc(/C=C2\SC(=O)N(CCCC(=O)Nc3cc(Cl)ccc3C(=O)O)C2=O)cc1`, the half-maximal activity concentration (AC50) is 0.528 µM.

With `O=[N+]([O-])/C=C\c1ccc(N2CCOCC2)cc1`, the half-maximal activity concentration (AC50) is 13.6 µM.

As for `Cc1nc(Sc2nnnn2C)c2c3c(sc2n1)CCC3`, the half-maximal activity concentration (AC50) is 4.98 µM.

Take `CCOc1ccc(-n2c(-c3ccc(Br)cc3)c[n+]3c2CCCCC3)cc1`: the concentration at half-maximal activity (AC50) was 3.87 µM.

Consider `CCSC1(SCC)N=C(N)C2(C#N)C(c3ccc(F)cc3)C12C#N` (stereo unspecified), for which the AC50 is 14 µM.

For the molecule `Cc1cnc(NC(=O)c2nn(C)cc2[N+](=O)[O-])s1`, the concentration at half-maximal activity (AC50) is 20.6 µM.

With `O=C(O)CSCC(=O)Nc1ccc(C2CCCCC2)cc1`, the concentration at half-maximal activity (AC50) was 2.12 µM.

Take `CC1(C(=O)N/N=C/c2ccc([N+](=O)[O-])o2)CC1(Br)Br` (stereo unspecified): the AC50 was 10.3 µM.

For `N=c1n(CC(=O)c2ccc(Br)s2)c2ccccc2n1Cc1ccccc1`, the concentration at half-maximal activity (AC50) was 7.34 µM.

As to `CCN1/C(=C/c2cc[n+](C)cc2)C=Cc2cc(C)ccc21`, the AC50 was 1.74 µM.

With `COc1ccc(C(=O)/C=C/C(=O)N(CC(=O)NC2CCCCC2)CC2CCCO2)c(O)c1` (stereo unspecified), the half-maximal activity concentration (AC50) was 4.01 µM.

`COc1cccc(-c2csc3ncnc(Sc4nnnn4C)c23)c1`: the AC50 is 25 µM.

For `CC(=O)N(C)C1=C(N2CCOCC2)C(=O)c2ccccc2C1=O`, the concentration at half-maximal activity (AC50) was 3.5 µM.

As to `O=C(N/N=C/c1cc(Cl)ccc1O)c1ccncc1`, the AC50 was 8.98 µM.

In the case of `COC(=O)c1ccc(Nc2cc(C)nc3ccc(C)cc23)cc1`, the concentration at half-maximal activity (AC50) was 6.85 µM.

For the molecule `CC(C)(C)c1ccc(-c2cn(-c3ccc(Br)cc3)c3[n+]2CCCS3)cc1`, the half-maximal activity concentration (AC50) was 3.2 µM.

Regarding `CCCN(CC(=O)Nc1ccccc1C)C(=O)CCl`, the AC50 was 4.04 µM.

For the molecule `CC(C)Oc1ccc(C(CCN)C2CCCCC2)cc1` (stereo unspecified), the AC50 is 9.99 µM.

On to `CCCOc1ccc(C(=O)C(CN2CCCC2)c2ccccc2)cc1` (stereo unspecified), for which the AC50 was 8.62 µM.

On to `Cc1ccc(/C=N/Nc2ccc(C(=O)O)cc2)s1`, for which the AC50 is 3.3 µM.

As to `COc1ccc(N(C(=O)CCl)C(C(=O)NC2CCCCC2)c2cccnc2)cc1` (stereo unspecified), the half-maximal activity concentration (AC50) was 5.87 µM.

Take `O=C(O)c1ccc(N/N=C/c2ccc3nccnc3c2)cc1`: the half-maximal activity concentration (AC50) is 0.696 µM.

On to `CC1=NOC(=O)/C1=C\c1ccc(-c2cccc(Cl)c2)o1`, for which the AC50 was 5.36 µM.

Take `CS(=O)(=O)c1ccc(S(=O)CC(=O)OCc2ccccc2)c([N+](=O)[O-])c1` (stereo unspecified): the AC50 was 5.46 µM.

Consider `Cc1cc(C(=O)N/N=C/c2ccc([N+](=O)[O-])o2)c(C)o1`, for which the AC50 is 4.79 µM.

In the case of `CC(=O)OCCNc1cc(Sc2nc3ccccc3[nH]2)c2nonc2c1[N+](=O)[O-]`, the AC50 was 11.5 µM.

In the case of `O=C(NCc1cccs1)c1nc2c(nnn2Cc2ccccc2Cl)c(=O)[nH]1`, the AC50 was 6.66 µM.

Consider `O=[N+]([O-])c1ccc(/C=N/n2c(CO)nc3ccccc32)s1`, for which the concentration at half-maximal activity (AC50) is 1.98 µM.

For the molecule `CC(C)CC(=O)/C=C/n1c(=S)oc2ccccc21`, the half-maximal activity concentration (AC50) is 10.5 µM.

As to `Cc1scc(C(=O)N/N=C/c2ccc([N+](=O)[O-])o2)c1C`, the AC50 was 2.19 µM.

For `C#CC(=O)N(c1ccc(OC)c(OC)c1)C(C(=O)NC1CCCC1)c1cccs1` (stereo unspecified), the half-maximal activity concentration (AC50) is 3.31 µM.
